“And” between values parts separate entries of the source, which are not always exact repeats. Identical values can stand only once. Bounds are passed on as bounds.

The assay concerns the target P2Y12 receptor (Homo sapiens, UniProt Q9H244). Briefly: [33P]-2MeS-ADP binding to recombinant human P2Y12 membranes (Assay 3). Also noted: expressed in transfected cells; host or cells: HEK cells. To be noted: for IC50 / Ki: HEK cell membranes expressing human P2Y12, competition with 33P 2MeS-ADP. In outline:
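Membranes from HEK cells transfected with human P2Y12, used in competitive binding against [33P]-2MeS-ADP in Tris/NaCl/EDTA buffer with 0.02% BSA. Seven-point 3-fold dilutions from 10 μM final, 1 h at room temperature, then filtration and scintillation counting. IC50 from four-parameter fit with Hill slope fixed at one, plate controls defining min/max.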

The mark [1] stands for this setting: at highest concentration tested, 10 μM.
[2] abbreviates: at highest concentration tested, 1 μM.

P2Y12 receptor, sequence (Q9H244 whole entry): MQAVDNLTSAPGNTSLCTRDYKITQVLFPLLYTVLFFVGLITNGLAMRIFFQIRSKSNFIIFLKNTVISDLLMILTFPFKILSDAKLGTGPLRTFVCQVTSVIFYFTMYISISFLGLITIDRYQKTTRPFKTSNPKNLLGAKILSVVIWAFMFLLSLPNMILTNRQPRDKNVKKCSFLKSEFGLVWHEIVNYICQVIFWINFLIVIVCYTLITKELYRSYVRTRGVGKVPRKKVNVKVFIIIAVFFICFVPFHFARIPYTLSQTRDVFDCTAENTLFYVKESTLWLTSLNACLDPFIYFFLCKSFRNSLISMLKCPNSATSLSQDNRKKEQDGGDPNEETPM

Regarding `CCc1cc2c(N3CCN(C(=O)Cc4ccccc4)CC3)nc(SCC(=O)NC)nc2s1` [Example 13, 2-({6-Ethyl-4-[4-(phenylacetyl)piperazin-1-yl]thieno[2,3-d]pyrimidin-2-yl}thio)-N-methylacetamide], the IC50 (commonly the point on the concentration scale where inhibition reaches its midpoint) was 0.28 µM and 0.53 µM; the Ki (usually the dissociation constant of the complex between target and ligand, obtained from inhibition or displacement) was 0.16 µM and 0.31 µM. Also, under setting [1], the % Inhibition (as a rule, the change of the read-out against control, counted positive when it falls) was 88.77% and the inhibition (as a rule, the relative decrease from the control value, in per cent) at 10 µM came to 88.2%.
For `CCc1cc2c(N3CCN(C(=O)c4cccc(C)c4)CC3)nc(SCC(=O)OC)nc2s1` [Example 61, Methyl ({6-ethyl-4-[4-(3-methylbenzoyl)piperazin-1-yl]thieno[2,3-d]pyrimidin-2-yl}thio)acetate], the IC50 was found to be 1.91 µM and the Ki was 1.24 µM. The inhibition at 10 µM under setting [1] turned out to be 78.5%.
For `CCc1cc2c(N3CCN(C(=O)c4ccc(-c5csnn5)cc4)CC3)nc(SCC(=O)OC)nc2s1` [Example 66, Methyl [(6-ethyl-4-{4-[4-(1,2,3-thiadiazol-4-yl)benzoyl]piperazin-1-yl}thieno[2,3-d]pyrimidin-2-yl)thio]acetate] the same measures were 0.45 µM, 0.27 µM and 74.6%.
In the case of `CCc1cc2c(N3CCN(C(=O)Cc4ccccc4)CC3)nc(SCCCCO)nc2s1` [Example 84, 4-({6-ethyl-4-[4-(phenylacetyl)piperazin-1-yl]thieno[2,3-d]pyrimidin-2-yl}thio)butan-1-ol], the IC50 was 0.58 µM and 1.44 µM and 0.22 µM and 0.27 µM and 0.52 µM; the Ki is 0.315 µM and 0.825 µM and 0.13 µM and 0.15 µM and 0.3 µM. In addition, the “% Inhibition” value under setting [1] is 90.62% and 71.83% and 92.13% and 94.46% and 90.58%.
On to `CCc1cc2c(N3CCN(C(=O)c4ccc(C)cc4)CC3)nc(SCC(=O)OC)nc2s1` [Example 45, Methyl ({6-ethyl-4-[4-(4-methylbenzoyl)piperazin-1-yl]thieno[2,3-d]pyrimidin-2-yl}thio)acetate], for which the IC50 is over 10 µM and the Ki was over 6.7 µM. In addition, under setting [1], the inhibition at 10 µM came to 42.5%.
In the case of `CCc1cc2c(N3CCN(C(=O)c4cccc(C(F)(F)F)c4)CC3)nc(SCC(=O)OC)nc2s1` [Example 60, Methyl [(6-ethyl-4-{4-[3-(trifluoromethyl)benzoyl]piperazin-1-yl}thieno[2,3-d]pyrimidin-2-yl)thio]acetate], the IC50 turned out to be 4.87 µM and the Ki came out at 3.16 µM. Besides, the inhibition at 10 µM under setting [1] came out at 60.8%.
`CCc1cc2c(N3CCN(C(=O)c4ccc(-c5ccccc5)cc4)CC3)nc(Cl)nc2s1` [Example 21, 4-[4-(1,1′-Biphenyl-4-ylcarbonyl)piperazin-1-yl]-2-chloro-6-ethylthieno[2,3-d]pyrimidine]: the IC50 was 0.022 µM and 0.01 µM and 0.02 µM and 0.043 µM; the Ki was 0.012 µM and 0.01 µM and 0.025 µM. Besides, under setting [2], the “% Inhibition” value was found to be 95.00% and the inhibition at 1 µM came out at 91.9%. Further, under setting [1], the “% Inhibition” value is on record as 98.24% and the inhibition at 10 µM was found to be 95.8%.
In the case of `CCc1cc2c(N3CCN(C(=O)Cc4ccccc4)CC3)nc(SCC(=O)OC)nc2s1` [Example 7, methyl ({6-ethyl-4-[4-(phenylacetyl)piperazin-1-yl]thieno[2,3-d]pyrimidin-2-yl}thio)acetate], the 50% inhibitory concentration (IC50) is 1.02 µM and 0.38 µM and 0.42 µM and 0.32 µM; the Ki is 0.582 µM and 0.21 µM and 0.24 µM and 0.174 µM. Under setting [1], the “% Inhibition” value was 89.51% and 95.92% and 94.06%; the inhibition at 10 µM was determined as 92.9%.
With `CCc1cc2c(N3CCN(C(=O)Cc4ccccc4)CC3)nc(SCCNC(C)=O)nc2s1` [Example 15, N-[2-({6-Ethyl-4-[4-(phenylacetyl)piperazin-1-yl]thieno[2,3-d]pyrimidin-2-yl}thio)ethyl]acetamide], the IC50 was found to be 0.3 µM and the Ki came to 0.17 µM. Further, under setting [1], the “% Inhibition” value worked out at 92.26% and the inhibition at 10 µM came to 87%.
For `CCc1cc2c(N3CCN(C(=O)c4ccc(-c5ccccc5)cc4)CC3)nc(SCCO)nc2s1` [Example 32, 2-({4-[4-(1′-Biphenyl-4-ylcarbonyl)piperazin-1-yl]-6-ethylthieno[2,3-d]pyrimidin-2-yl}thio)ethanol], the IC50 is 0.052 µM and the Ki was 0.029 µM. For the same compound, the inhibition at 10 µM under setting [1] was 93.2%.
For the compound `CCc1cc2c(N3CCN(C(=O)c4ccc(-c5ccccc5)cc4)CC3)nc(SCC(O)CO)nc2s1` (stereo not drawn) [Example 28, 3-({4-[4-(1,1′-Biphenyl-4-ylcarbonyl)piperazin-1-yl]-6-ethylthieno[2,3-d]pyrimidin-2-yl}thio)propane-1,2-diol], the IC50 is 0.038 µM and the Ki was determined as 0.022 µM. Moreover, the inhibition at 10 µM under setting [1] was 94.3%.
Regarding `CCc1cc2c(N3CCN(C(=O)Cc4ccccc4)CC3)nc(SCC(=O)Nc3ccccc3)nc2s1` [Example 23, 2-({6-Ethyl-4-[4-(phenylacetyl)piperazin-1-yl]thieno[2,3-d]pyrimidin-2-yl}thio)-N-phenylacetamide], under setting [1], the “% Inhibition” value turned out to be 75.04% and the inhibition at 10 µM was found to be 64.6%.
`CCc1cc2c(N3CCN(C(=O)c4cccc(OC)c4)CC3)nc(SCC(=O)OC)nc2s1` [Example 75, Methyl ({6-ethyl-4-[4-(3-methoxybenzoyl)piperazin-1-yl]thieno[2,3-d]pyrimidin-2-yl}thio)acetate]: the concentration for half-maximal inhibition (IC50) turned out to be 3.5 µM and the Ki turned out to be 2.25 µM. Also, the inhibition at 10 µM under setting [1] stood at 70.5%.
Consider `CCc1cc2c(N3CCN(C(=O)c4ccc5[nH]ccc5c4)CC3)nc(SCC(=O)OC)nc2s1` [Example 62, Methyl ({6-ethyl-4-[4-(1H-indol-5-ylcarbonyl)piperazin-1-yl]thieno[2,3-d]pyrimidin-2-yl}thio)acetate], for which the IC50 came to 5.86 µM and the Ki was 3.53 µM. In addition, the inhibition at 10 µM under setting [1] is 50.9%.
In the case of `CCc1cc2c(N3CCN(C(=O)c4ccc(OC)cc4)CC3)nc(SCC(=O)OC)nc2s1` [Example 59, Methyl ({6-ethyl-4-[4-(4-methoxybenzoyl)piperazin-1-yl]thieno[2,3-d]pyrimidin-2-yl}thio)acetate], the IC50 stood at 2.97 µM and the Ki stood at 1.48 µM. Moreover, the inhibition at 10 µM under setting [1] stood at 67.1%.
Take `CCc1cc2c(N3CCN(C(=O)Cc4ccccc4)CC3)nc(SCC(N)=O)nc2s1` [Example 24, 2-({6-Ethyl-4-[4-(phenylacetyl)piperazin-1-yl]thieno[2,3-d]pyrimidin-2-yl}thio)acetamide]: the IC50 was 0.19 µM and 0.24 µM; the Ki was 0.11 µM and 0.13 µM. For the same compound, under setting [1], the “% Inhibition” value worked out at 92.16% and the inhibition at 10 µM worked out at 83.1%.
`CCc1cc2c(N3CCN(C(=O)c4ccc5nccnc5c4)CC3)nc(SCC(=O)OC)nc2s1` [Example 77, Methyl ({6-ethyl-4-[4-(quinoxalin-6-ylcarbonyl)piperazin-1-yl]thieno[2,3-d]pyrimidin-2-yl}thio)acetate]: the IC50 came out at 4.85 µM and the Ki amounted to 2.81 µM. Besides, under setting [1], the inhibition at 10 µM came to 63.4%.
The corresponding values for `CCc1cc2c(N3CCN(C(=O)c4cccc5ccccc45)CC3)nc(SCC(=O)OC)nc2s1` [Example 50, Methyl ({6-ethyl-4-[4-(1-naphthoyl)piperazin-1-yl]thieno[2,3-d]pyrimidin-2-yl}thio)acetate] are over 10 µM, over 6.7 µM and 40.3%.
Turning to `CCc1cc2c(N3CCN(C(=O)c4ccc(OC(F)(F)F)cc4)CC3)nc(SCC(=O)OC)nc2s1` [Example 49, Methyl [(6-ethyl-4-{4-[4-(trifluoromethoxy)benzoyl]piperazin-1-yl}thieno[2,3-d]pyrimidin-2-yl)thio]acetate], the IC50 was 5.52 µM and the Ki came to 3.68 µM. Further, the inhibition at 10 µM under setting [1] stood at 56.8%.

For the origin of these results see patent US20080176857A1, “4-Piperazinnylthieno[2,3-d]Pyrimidine Compounds as Platelet Aggregation Inhibitors” (priority 2005, published 2008).
